A value given as a limit tells only on which side of the number the result lay.

The target in the first assay is T1, ER (Homo sapiens, UniProt P03372).
T1 construct: host or cells: T47D and MCF7 human breast cancer cells
T1 sequence (P03372 1-595): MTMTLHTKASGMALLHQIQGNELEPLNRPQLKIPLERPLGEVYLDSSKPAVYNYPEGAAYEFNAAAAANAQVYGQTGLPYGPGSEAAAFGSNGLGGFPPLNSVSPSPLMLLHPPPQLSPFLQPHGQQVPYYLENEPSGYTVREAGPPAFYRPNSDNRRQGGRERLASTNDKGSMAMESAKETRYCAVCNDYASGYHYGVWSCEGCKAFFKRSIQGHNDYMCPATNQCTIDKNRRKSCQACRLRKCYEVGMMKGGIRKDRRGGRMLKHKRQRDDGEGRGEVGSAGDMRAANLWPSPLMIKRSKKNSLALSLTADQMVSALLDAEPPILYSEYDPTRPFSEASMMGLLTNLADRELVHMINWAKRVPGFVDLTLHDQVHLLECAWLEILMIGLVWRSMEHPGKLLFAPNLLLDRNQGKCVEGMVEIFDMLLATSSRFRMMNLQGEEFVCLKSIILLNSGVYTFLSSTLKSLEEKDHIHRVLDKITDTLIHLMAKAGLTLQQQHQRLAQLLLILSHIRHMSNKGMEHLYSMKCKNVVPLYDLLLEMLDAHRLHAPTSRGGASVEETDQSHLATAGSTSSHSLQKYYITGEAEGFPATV
As to the kind of experiment: ER degradation activity, in-cell western blot analysis in T47D cells. Format: cell-based. As to conditions: 16 hours, Table A does not say which cell line (T47D or MCF7), read-out: Potency (DC50). The gist of the method:
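T47D cells cultured in DMEM with 10% FBS, treated with compounds (final 0.5% DMSO) for 16 h. ER level measured by in-cell western with anti-rabbit-680/anti-mouse-800 near-infrared detection. Relative ER percentage calculated against untreated and DMSO-treated wells set as 100%.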
For orientation: DC50 means the concentration giving 50% degradation. For `CCC(=C(c1ccc(O)cc1)c1ccc(N2CCC3(CCN(C(=O)CN4Cc5cc6c(cc5C4)C(=O)N(C4CCC(=O)NC4=O)C6=O)CC3)C2)cc1)c1ccccc1` (stereo not shown) [E 189, 2-(2,6-dioxopiperidin-3-yl)-6-(2-(2-(4-(1-(4-hydroxyphenyl)-2-phenylbut-1-en-1-yl)phenyl)-2,8-diazaspiro[4.5]decan-8-yl)-2-oxoethyl)-6,7-dihydropyrrolo[3,4-f]isoindole-1,3(2H,5H)-dione], the DC50 lay within 10 to 100 nM.
Take `C[C@@H]1Cc2c([nH]c3ccccc23)[C@@H](c2c(F)cc(C3CCC(C(=O)N4CCC(CN5Cc6cc7c(cc6C5)C(=O)N(C5CCC(=O)NC5=O)C7=O)CC4)CC3)cc2F)N1CC(F)F` (stereo partly drawn) [E248, 6-((1-(4-(4-((1R,3R)-2-(2,2-difluoroethyl)-3-methyl-2,3,4,9-tetrahydro-1H-pyrido[3,4-b]indol-1-yl)-3,5-difluorophenyl)cyclohexane-1-carbonyl)piperidin-4-yl)methyl)-2-(2,6-dioxopiperidin-3-yl)-6,7-dihydropyrrolo[3,4-f]isoindole-1,3(2H,5H)-dione]: the half-maximal degradation concentration (DC50) was more than 100 nM.
On the same count and under the same terms, then `O=C1CCC(N2C(=O)c3cc4c(cc3C2=O)CN(C2CCC3(CC2)CCN(c2ccc([C@@H]5c6ccc(O)cc6CC[C@@H]5c5ccccc5)cc2)CC3)C4)C(=O)N1` (stereo partly drawn) [E 160, 2-(2,6-dioxopiperidin-3-yl)-6-(3-(4-((1R,2S)-6-hydroxy-2-phenyl-1,2,3,4-tetrahydronaphthalen-1-yl)phenyl)-3-azaspiro[5.5]undecan-9-yl)-6,7-dihydropyrrolo[3,4-f]isoindole-1,3(2H,5H)-dione], with more than 100 nM.
Take `CN(c1ccc([C@H]2c3ccc(O)cc3CC[C@H]2c2ccccc2)cc1)C1CN([C@H]2CC[C@H](C(=O)N3Cc4cc5c(cc4C3)C(=O)N(C3CCC(=O)NC3=O)C5=O)CC2)C1` (stereo partly drawn) [E 395, 2-(2,6-dioxopiperidin-3-yl)-6-((1R,4s)-4-(3-((4-((1S,2R)-6-hydroxy-2-phenyl-1,2,3,4-tetrahydronaphthalen-1-yl)phenyl)(methyl)amino)azetidin-1-yl)cyclohexane-1-carbonyl)-6,7-dihydropyrrolo[3,4-f]isoindole-1,3(2H,5H)-dione]: the DC50 is more than 100 nM.
Still for that read-out and setting: then `C[C@@H]1Cc2c([nH]c3ccccc23)[C@@H](c2c(F)cc(N3CC4(CCN(CC(=O)N5Cc6cc7c(cc6C5)C(=O)N(C5CCC(=O)NC5=O)C7)C4)C3)cc2F)N1CC(F)F` (stereo partly drawn) [E 73, 3-(6-(2-(2-(4-((1R,3R)-2-(2,2-difluoroethyl)-3-methyl-2,3,4,9-tetrahydro-1H-pyrido[3,4-b]indol-1-yl)-3,5-difluorophenyl)-2,6-diazaspiro[3.4]octan-6-yl)acetyl)-1-oxo-3,5,6,7-tetrahydropyrrolo[3,4-f]isoindol-2(1H)-yl)piperidine-2,6-dione], with less than 10 nM; and `O=C1CCC(N2C(=O)c3cc4c(cc3C2=O)CCN(CC(=O)N2CCC3(CC2)CCN(c2ccc([C@@H]5c6ccc(O)cc6CC[C@@H]5c5ccccc5)cc2)CC3)CC4)C(=O)N1` (stereo partly drawn) [E 166, 2-(2,6-dioxopiperidin-3-yl)-7-(2-(9-(4-((1R,2S)-6-hydroxy-2-phenyl-1,2,3,4-tetrahydronaphthalen-1-yl)phenyl)-3,9-diazaspiro[5.5]undecan-3-yl)-2-oxoethyl)-6,7,8,9-tetrahydroazepino[4,5-f]isoindole-1,3(2H,5H)-dione], with more than 100 nM; and `O=C1CCC(N2C(=O)c3cc4c(cc3C2=O)CN(C2CCC(C(=O)N3CCCC(Oc5ccc([C@@H]6c7ccc(O)cc7CC[C@@H]6c6ccccc6)cc5)C3)CC2)C4)C(=O)N1` (mixture of isomers) [E 23, Rac-2-(2,6-dioxopiperidin-3-yl)-6-(4-(3-(4-((1R,2S)-6-hydroxy-2-phenyl-1,2,3,4-tetrahydronaphthalen-1-yl)phenoxy)piperidine-1-carbonyl)cyclohexyl)-6,7-dihydropyrrolo[3,4-f]isoindole-1,3(2H,5H)-dione], with 10 to 100 nM.
For the compound `O=C1CCC(N2Cc3cc4c(cc3C2=O)CN(C(=O)[C@H]2CC[C@@H](N3CC(Oc5ccc([C@@H]6c7ccc(O)cc7CC[C@@H]6c6ccccc6)cc5)C3)CC2)C4)C(=O)N1` (single isomer, unassigned) [E 358], the DC50 is more than 100 nM.
With `C[C@@H]1Cc2cc(O)ccc2[C@@H](c2c(F)cc(N3CCC4(CCN(CC(=O)N5Cc6cc7c(cc6C5)C(=O)N(C5CCC(=O)NC5=O)C7)C4)CC3)cc2F)N1CC(C)(F)F` (stereo partly drawn) [E 34, 3-(6-(2-(8-(4-((1S,3R)-2-(2,2-difluoropropyl)-6-hydroxy-3-methyl-1,2,3,4-tetrahydroisoquinolin-1-yl)-3,5-difluorophenyl)-2,8-diazaspiro[4.5]decan-2-yl)acetyl)-1-oxo-3,5,6,7-tetrahydropyrrolo[3,4-f]isoindol-2(1H)-yl)piperidine-2,6-dione], the half-maximal degradation concentration (DC50) lay in the range of 10 to 100 nM.
The same measure, in the same setting: then `C[C@@H]1Cc2c([nH]c3ccccc23)[C@@H](c2c(F)cc(N3CCC4(CN(C(=O)CN5Cc6cc7c(cc6C5)C(=O)N(C5CCC(=O)NC5=O)C7)C4)C3)cc2F)N1CC(F)F` (stereo partly drawn) [E 72, 3-(6-(2-(6-(4-((1R,3R)-2-(2,2-difluoroethyl)-3-methyl-2,3,4,9-tetrahydro-1H-pyrido[3,4-b]indol-1-yl)-3,5-difluorophenyl)-2,6-diazaspiro[3.4]octan-2-yl)-2-oxoethyl)-1-oxo-3,5,6,7-tetrahydropyrrolo[3,4-f]isoindol-2(1H)-yl)piperidine-2,6-dione], with less than 10 nM; and `C[C@@H]1Cc2c([nH]c3ccccc23)[C@@H](c2c(F)cc(N3CCC(CN4Cc5cc6c(cc5C4)C(=O)N(C4CCC(=O)NC4=O)C6)CC3)cc2F)N1CC(F)F` (stereo partly drawn) [E 147, 3-(6-((1-(4-((1R,3R)-2-(2,2-difluoroethyl)-3-methyl-2,3,4,9-tetrahydro-1H-pyrido[3,4-b]indol-1-yl)-3,5-difluorophenyl)piperidin-4-yl)methyl)-1-oxo-3,5,6,7-tetrahydropyrrolo[3,4-f]isoindol-2(1H)-yl)piperidine-2,6-dione], with more than 100 nM; and `C[C@@H]1Cc2c([nH]c3ccccc23)[C@@H](c2c(F)cc(-c3cnc(C(=O)N4CCC(N5Cc6cc7c(cc6C5)C(=O)N(C5CCC(=O)NC5=O)C7=O)CC4)cn3)cc2F)N1CC(F)F` (stereo partly drawn) [E 344, 6-(1-(5-(4-((1R,3R)-2-(2,2-difluoroethyl)-3-methyl-2,3,4,9-tetrahydro-1H-pyrido[3,4-b]indol-1-yl)-3,5-difluorophenyl)pyrazine-2-carbonyl)piperidin-4-yl)-2-(2,6-dioxopiperidin-3-yl)-6,7-dihydropyrrolo[3,4-f]isoindole-1,3(2H,5H)-dione], with more than 100 nM.
Turning to `C[C@@H]1Cc2cc(O)ccc2[C@@H](c2c(F)cc(N3CCC(C(=O)N4CCC(N5Cc6cc7c(cc6C5)C(=O)N(C5CCC(=O)NC5=O)C7=O)CC4)CC3)cc2F)N1CC(F)F` (stereo partly drawn) [E 269, 6-(1-(1-(4-((1S,3R)-2-(2,2-difluoroethyl)-6-hydroxy-3-methyl-1,2,3,4-tetrahydroisoquinolin-1-yl)-3,5-difluorophenyl)piperidine-4-carbonyl)piperidin-4-yl)-2-(2,6-dioxopiperidin-3-yl)-6,7-dihydropyrrolo[3,4-f]isoindole-1,3(2H,5H)-dione], the DC50 was more than 100 nM.
As to `C[C@@H]1Cc2c([nH]c3ccccc23)[C@@H](c2c(F)cc(C3CCC(C(=O)N4CCC(N5Cc6cc7c(cc6C5)C(=O)N(C5CCC(=O)NC5=O)C7)CC4)CC3)cc2F)N1CC(F)F` (stereo partly drawn) [E 307, 3-(6-(1-(4-(4-((1R,3R)-2-(2,2-difluoroethyl)-3-methyl-2,3,4,9-tetrahydro-1H-pyrido[3,4-b]indol-1-yl)-3,5-difluorophenyl)cyclohexane-1-carbonyl)piperidin-4-yl)-1-oxo-3,5,6,7-tetrahydropyrrolo[3,4-f]isoindol-2(1H)-yl)piperidine-2,6-dione], the DC50 was less than 10 nM.

Still in this assay, the particulars now being: compounds 16 hours, Table A does not say whether T47D or MCF7, read-out: Potency (DC50).
In the case of `C[C@@H]1Cc2cc(O)ccc2[C@@H](c2ccc(N3CCC4(CCN(C(=O)CN5Cc6cc7c(cc6C5)C(=O)N(C5CCC(=O)NC5=O)C7=O)CC4)CC3)cc2)N1c1ccc(F)cc1` (stereo partly drawn) [E 462, 2-(2,6-dioxopiperidin-3-yl)-6-(2-(9-(4-((1R,3R)-2-(4-fluorophenyl)-6-hydroxy-3-methyl-1,2,3,4-tetrahydroisoquinolin-1-yl)phenyl)-3,9-diazaspiro[5.5]undecan-3-yl)-2-oxoethyl)-6,7-dihydropyrrolo[3,4-f]isoindole-1,3(2H,5H)-dione], the half-maximal degradation concentration (DC50) was in the range of 10 to 100 nM.
Still for that read-out and setting: then `C[C@@H]1Cc2cc(O)ccc2[C@@H](c2c(F)cc(C(=O)N3CCC4(CC3)CC(CN3Cc5cc6c(cc5C3)C(=O)N(C3CCC(=O)NC3=O)C6=O)C4)cc2F)N1CC(F)F` (stereo partly drawn) [E 465, 6-((7-(4-((1S,3R)-2-(2,2-difluoroethyl)-6-hydroxy-3-methyl-1,2,3,4-tetrahydroisoquinolin-1-yl)-3,5-difluorobenzoyl)-7-azaspiro[3.5]nonan-2-yl)methyl)-2-(2,6-dioxopiperidin-3-yl)-6,7-dihydropyrrolo[3,4-f]isoindole-1,3(2H,5H)-dione], with more than 100 nM.

(Values after patent US20240190880A1 (THE REGENTS OF THE UNIVERSITY OF MICHIGAN, priority 2021, published 2024).)
